Values of other authors, collected in PMC12084609, “Structural insights into small-molecule agonist recognition and activation of complement receptor C3aR” (The EMBO Journal, 2025).

System: C3aR R161A
Details: quoted by Referee #2; ref https://doi.org/10.1038/s41589-023-01339-w; cited from earlier work

Substance: C3a: anaphylatoxin C3a, natural peptide ligand of C3aR (a 77-amino acid peptide), Sigma-Aldrich
- decrease of potency toward C3aR by R161A: ~ 1000 fold
